The structures appear in SMILES notation. Substitutions are numbered along the chain they refer to.

Experimental findings from patent US9315484B2, “Mitochondrial aldehyde dehydrogenase-2 modulators and methods of use thereof” (The Board of Trustees of the Leland Stanford Junior …, priority 2007, dated 2016) are described below.

Assay [1] has as its target T1, "wild-type" ALDH2 enzyme (Homo sapiens, UniProt P05091).
T1 sequence (P05091 18-517): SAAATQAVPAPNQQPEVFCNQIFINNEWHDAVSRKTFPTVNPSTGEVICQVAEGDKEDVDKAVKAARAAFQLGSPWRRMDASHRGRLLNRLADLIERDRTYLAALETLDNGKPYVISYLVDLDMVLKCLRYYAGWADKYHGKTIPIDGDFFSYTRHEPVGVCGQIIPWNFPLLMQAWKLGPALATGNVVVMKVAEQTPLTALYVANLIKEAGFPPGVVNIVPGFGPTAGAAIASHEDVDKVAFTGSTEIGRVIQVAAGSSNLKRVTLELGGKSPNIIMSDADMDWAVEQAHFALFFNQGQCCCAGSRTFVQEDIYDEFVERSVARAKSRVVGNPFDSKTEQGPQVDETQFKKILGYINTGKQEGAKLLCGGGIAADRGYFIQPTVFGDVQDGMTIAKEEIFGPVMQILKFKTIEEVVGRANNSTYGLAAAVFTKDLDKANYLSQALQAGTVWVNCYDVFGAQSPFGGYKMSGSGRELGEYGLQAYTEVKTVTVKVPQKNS
Put plainly: Screen and inhibition assay with wild-type ALDH2 enzyme. It counts as biochemical. How it is done:
(§1) Compounds were screened using a method as depicted schematically in FIG. 2. Essentially, the reaction is carried out at 25° C. in 0.1 NaPPi buffer, pH 9.5, 2.4 mM NAD^+ and 10 mM acetaldehyde as the substrate. Enzymatic activity is measured by a reductive reaction of NAD^+ to NADH at 340 nm. Alternatively, the production of NADH can be coupled with another enzymatic reaction that consumes NADH and that provides for a detectable signal. An example of such an enzymatic reaction is a diaphorase-based reaction, which reduces resazurin to its […] fluorescent compound resorufin.
Compounds were screened, as described above, but using the “wild-type” ALDH2 enzyme. Of 63,000 compounds screened, six inhibitors were identified. Three of the compounds, referred to in FIGS. 8, 9, and 10 as #062923, #046072, and #032208, respectively, were assayed for their effect on ALDH2 enzymatic activity.

Assay [2] has as its target T2, E487K variant of human ALDH2 (Homo sapiens, UniProt P05091, E504K).
T2 construct: made in house; host or cells: E. coli
T2 sequence (P05091 18-517 E504K): T1 sequence (P05091 18-517) with E487K
Put plainly: Enzymatic activity of histidine-tagged E487K ALDH2 variant (NAD+ to NADH, acetaldehyde substrate). It counts as biochemical. The settings on record: over control (without activator compound) activity; n=3. As for the experimental part:
as §1
For example, a 120 μl reaction mixture for ALDH2 enzymatic activity comprises the following components:
43 μl 150 mM sodium pyrophosphate (NaPPi) buffer, pH 9.0;
15 μl 80 mM acetaldehyde;
1 μl of resazurin (0.2 mg/ml in H2O);
1 μl of diaphorase (1 unit, e.g., from Clostridium kluyveri);
2 μl of variant ALDH2 (e.g., 2 μl of variant ALDH2 at (0.5-2 μg/μl); and
28 μl of a solution comprising an agent to be tested, which agent has been resuspended in an appropriate solvent (e.g., an aqueous solution, DMSO, and the like).
Fluorescent detection of the above-described reaction as described in Table 1:
A fusion protein that includes the E487K variant of human ALDH2 (see amino acid sequence depicted in FIG. 1B) and a poly-histidine tag was synthesized and used in screens for ALDH2 agonists. An expression construct that encodes the […] variant fused in-frame to a poly-histidine (His) tag was introduced into E. coli, and expression was induced by the addition of isopropyl-1-thio-3-D-galactoside (IPTG); and His-tagged E487K ALDH2 variant was produced. The His-tagged E487K ALDH2 variant was purified from E. coli extract using a metal ion affinity column to bind the His-tagged E487K ALDH2 variant. His-tagged E487K ALDH2 variant was eluted from the column and used in screening assays to identify ALDH2 agonists.

Assay [3] relates to rat hearts. The experiment in a line: Ex vivo Langendorff model of myocardial infarction (no-flow ischemia and reperfusion). The settings on record: ex vivo rat heart. As for the experimental part:
Ex vivo Langendorff preparations of rat hearts were used as a model to assess the damage incurred by no-flow ischemia and reperfusion injury. This is an experimental model that mimics the clinical situation of myocardial infarction in patients. Rat hearts were excised and cannulated on a Langendorff apparatus via the aorta. Retrograde perfusion was carried out using the standard oxygenated Kreb-Hensleit buffer maintained at 37° C. All hearts were stabilized by an initial 5- to 10-minute perfusion period followed by delivery of different cardioprotective agents or AldDH2 inhibitors for 10-30 minutes, depending on the reagent. Reagents used in some of the representative experiments including ethanol (50 mM), EPKC isozyme-selective activator and inhibitor peptides (1 μM), cyanamide (5 mM) and nitroglycerin (2 μM). […]
The degree of ischemia/reperfusion damage was measured by two independent commonly accepted parameters. […] In another assay, creatine phosphate kinase activity was measured from reperfusate of each heart collected during reperfusion. […] Homogenates from each heart was also obtained from a separate section of the identical sample and analyzed for aldehyde dehydrogenase enzymatic activity. Enzymatic activity was determined by a standard spectrophotometric method described above using acetaldehyde as the substrate and NAD^+ as a cofactor.

In assay [4] the target is T3, ALDH2*1 wild type enzyme (Homo sapiens, UniProt P05091).
T3 sequence (P05091 18-517): T1 sequence (P05091 18-517)
Put plainly: ALDH2 enzymatic assay, ALDH2*1 recombinant enzyme. It counts as biochemical. To be noted: for increase in activity of ALDH2*1 wild type enzyme: at the higher concentration (range 10-200 μM), n=3; for ALDH2 activation, dose dependence: range of 10-200 μM. As for the experimental part: (§2) BDDB derivative compounds, XO43 and XO44 as depicted in FIG. 12, were synthesized and tested in ALDH2 enzymatic assays. […] Enzymatic activity was measured by a reductive reaction of NAD^+ to NADH at 340 nm, as described in US 2005/0171043; and WO 2005/057213. […] (FIG. 12: n=3 for both right and left panels.)

The test system of assay [5] is Male Wistar rats. Put plainly: In vivo LAD coronary artery ligation ischemia/reperfusion model. Also noted: species or system rat. To be noted: 8.5 mg/kg into the left ventricle five minutes before LAD ligation, p<0.01. As for the experimental part: Male Wistar rats (250-300 g) were anesthetized by 3% isoflurane. The surgical procedures used for left anterior descending coronary artery (LAD) ligation are based on published protocols Animals were intubated, and ventilated with a Harvard rodent ventilator at a rate of 80 breaths per minute (5-15 mm Hg). Maintenance anesthesia was provided via 1% inhalational isoflurane, and body temperature was maintained at 37° C. using a rectal probe linked to a thermocoupled thermometer and an appropriate heating blanket. The heart was exposed by median sternotomy. Following a 20-minute period of stabilization, a ligature was placed around the LAD coronary artery, close to its origin from the aortic root. The ends of the ligature were passed through polyethylene tubing forming a small noose in which a syringe plunger was rested upon the myocardial surface. Coronary occlusion was achieved by pressing the tubing against the plunger while pulling on the ligature followed by clamping the tubing with a hemostat. Occlusion was determined by observation of immediate pallor of the left ventricular free wall. Reflow was achieved by release of the ligature. […]
At the end of reperfusion, hearts were excised and flushed with 0.9% saline. […] Serum was separated by centrifugation at 5000 g for 5 minutes on a tabletop centrifuge and creatine phosphate kinase (CPK) values were determined.

The target in assay [6] is T4, ALDH2*2 mutant enzyme (Homo sapiens, UniProt P05091, E504K).
T4 sequence (P05091 18-517 E504K): T1 sequence (P05091 18-517) with E487K
Put plainly: ALDH2 enzymatic assay, ALDH2*2 recombinant enzyme. It counts as biochemical. To be noted: range of 10-200 μM. How it is done: as §2

`O=C(Nc1nc2c(Cl)c(Cl)ccc2s1)c1cccnc1` [#032208] returned an IC50 in assay [1] of 1.62 µM.

`CCc1ccc(C(=O)CCN(C)C)cc1` [#046072] came in with an IC50 in assay [1] of 1.14 µM.

The molecule `COc1ccc(C(=O)CCN(C)C)cc1F` [#062923] returned an IC50 in assay [1] of 0.63 µM.

With `O=C(NCc1ccc2c(c1)OCO2)c1c(Cl)cccc1Cl` [Compound 1, N-(1,3-benzodioxol-5-ylmethyl)-2,6-dichlorobenzamide], the “increase of enzymatic activity of the E487K ALDH2 variant over control” value (shortened to “increase of enzymatic activity … over control”) in assay [2] is “approximately 900%”. For the same molecule, the infarct size in assay [3] (ischemia-reperfusion, control 57.7±5.4%, p<0.05, n=7) was 41.6±4.1%. In assay [3] (reperfusate, control 5530±329, P<0.05, n=8), this molecule showed a CPK release of 4396 Units/Liter. The “increase in activity of ALDH2*1 wild type enzyme” value (shortened to “increase in activity”) in assay [4] is given as “about 180%”. In addition, the “ALDH2 activation, dose dependence” value in assay [4] and in assay [6] was “dosage dependent effect” in each case. In addition, the “decrease of CPK release” value in assay [5] (rat blood) is “about 57%”. In addition, in assay [5] (rat), the “decrease of the extent of myocardial infarction” value is “about 60%”.

As to `O=C(NCc1ccc2c(c1)OCO2)c1c(F)cccc1F` [Compound 2, N-(1,3-benzodioxol-5-ylmethyl)-2,6-difluorobenzamide], the “increase of enzymatic activity … over control” value in assay [2] is listed as “approximately 300%”.

Regarding `O=C(NCc1ccc2c(c1)OCO2)c1ccccc1Br` [Compound 3, N-(1,3-benzodioxol-5-ylmethyl)-2-bromobenzamide], the “increase of enzymatic activity … over control” value in assay [2] is about 600%.

Take `O=C(NCc1ccc2c(c1)OCO2)c1ccccc1I` [Compound 4, N-(1,3-benzodioxol-5-ylmethyl)-2-iodobenzamide]: the “increase of enzymatic activity … over control” value in assay [2] was about 700%.

Turning to `O=C(NCc1ccc2c(c1)OCO2)c1c(Cl)cncc1Cl` [XO43], the “increase in activity” value in assay [4] was “about 180%”. The “ALDH2 activation, dose dependence” value in assay [4] and in assay [6] was “dosage dependent effect” in each case.

For the molecule `Cc1cccc(C)c1C(=O)NCc1ccc2c(c1)OCO2` [XO44], in assay [4], the “increase in activity” value is given as “about 180%” and the “ALDH2 activation, dose dependence” value is “dosage dependent effect”. The “ALDH2 activation, dose dependence” value in assay [6] was “dosage dependent effect”.
